Drawing on PubChem BioAssay (NCI), this text covers TGI for 14 compounds.

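How tested: cells in 96-well plates exposed to compound for 48 hours at five concentrations. At the TGI there is no net growth.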

Some test systems named below: HT29 colon; LOX IMVI melanoma; UACC-257 melanoma; SR leukemia; OVCAR-3 ovarian; COLO 205 colon; NCI-H226 lung; HCC-2998 colon; KM12 colon; RXF 393 renal; BT-549 breast.
Common to all, as to experiment: NCI-60 cell line screen, 48 h

On to `CC1C(=O)O[C@H]2C1CC[C@@]1(C)[C@H](O)CC[C@@]13C[C@]2(O)OO3` (some centres not stated), for which the TGI with HT29 colon, with LOX IMVI melanoma, in the assay with UACC-257 melanoma, in the assay on SR leukemia, in the assay on OVCAR-3 ovarian and with COLO 205 colon was more than 100 µM in each case. The TGI with NCI-H226 lung and in the assay on HCC-2998 colon was more than 100 µM each time.

In the case of `CCOP(=O)(OCC)C1=NC=CC=CC1n1c(-c2ccccc2)nn(CC)c1=O` (configuration not stated), the TGI in the assay on HT29 colon, in the assay with LOX IMVI melanoma, with KM12 colon, in the assay on UACC-257 melanoma, in the assay with SR leukemia and in the assay on OVCAR-3 ovarian was more than 100 µM throughout. Besides, the TGI in the assay with COLO 205 colon, in the assay with NCI-H226 lung, in the assay with HCC-2998 colon and in the assay with RXF 393 renal was more than 100 µM throughout.

As to `NC(=O)c1nnsc1NC=O`, the TGI in the assay with HT29 colon, with LOX IMVI melanoma, in the assay on KM12 colon, in the assay on UACC-257 melanoma, in the assay on SR leukemia and with COLO 205 colon was more than 100 µM throughout. Also, the TGI in the assay with NCI-H226 lung, in the assay on HCC-2998 colon and in the assay with RXF 393 renal was more than 100 µM in each case.

`CCc1nc2ccc(C(F)(F)F)cc2[nH]c1=O`: the TGI with HT29 colon, in the assay with LOX IMVI melanoma, in the assay with KM12 colon, with UACC-257 melanoma, in the assay on OVCAR-3 ovarian and in the assay on COLO 205 colon was more than 100 µM each time. Moreover, the TGI in the assay on NCI-H226 lung, in the assay with HCC-2998 colon, in the assay on BT-549 breast and in the assay on RXF 393 renal was more than 100 µM in each case.

As to `O=C(OCc1ccccc1)N1CCN(C(=O)OCc2ccccc2)CCN(C(=O)OCc2ccccc2)CCN(C(=O)OCc2ccccc2)CCN(C(=O)OCc2ccccc2)CC1`, the TGI with LOX IMVI melanoma was more than 100 µM; in the assay on KM12 colon, more than 100 µM; in the assay on UACC-257 melanoma, 73.1 µM; in the assay on OVCAR-3 ovarian, more than 100 µM; in the assay with COLO 205 colon, more than 100 µM; with NCI-H226 lung, more than 100 µM. Also, the TGI in the assay with HCC-2998 colon and in the assay with BT-549 breast was more than 100 µM each time.

With `CC1(CC2=C(C(=O)NCCO[Si](C)(C)C(C)(C)C)C3(OCCO3)C2=O)OCCO1`, the TGI in the assay with HT29 colon, in the assay with LOX IMVI melanoma, with KM12 colon, in the assay on UACC-257 melanoma, in the assay on OVCAR-3 ovarian and with COLO 205 colon was more than 100 µM throughout. Further, the TGI in the assay with NCI-H226 lung and in the assay on BT-549 breast was more than 100 µM throughout.

Take `C#CCn1c(=O)c(Cl)cn(/C(=C/C(=O)OCC)C(=O)OCC)c1=O`: the TGI in the assay on HT29 colon is 39.5 µM; in the assay with LOX IMVI melanoma it was 19.9 µM; with KM12 colon, more than 70.5 µM; with UACC-257 melanoma, 33.3 µM; in the assay with OVCAR-3 ovarian it was 11.7 µM; in the assay on COLO 205 colon it was 2.5 µM. Moreover, the results for the TGI in the assay on NCI-H226 lung, with BT-549 breast and in the assay on RXF 393 renal were more than 59.5 µM, 35.7 µM and 4.18 µM, respectively.

`O=[N+]([O-])c1c2nc3n(c2cc2c1nc1n2CCC1)CCC3`: the TGI in the assay with HT29 colon, in the assay with LOX IMVI melanoma, in the assay on KM12 colon, in the assay on UACC-257 melanoma, with SR leukemia and in the assay on OVCAR-3 ovarian was more than 100 µM each time. Besides, the TGI in the assay with COLO 205 colon, with NCI-H226 lung, in the assay on HCC-2998 colon and in the assay on RXF 393 renal was more than 100 µM throughout.

As for `O=c1c2ccccc2[nH]c2cc(O)cc(O)c12`, the TGI in the assay on HT29 colon, with LOX IMVI melanoma, with KM12 colon, with UACC-257 melanoma, with OVCAR-3 ovarian and with NCI-H226 lung was more than 100 µM each time. Moreover, the TGI with HCC-2998 colon and in the assay on RXF 393 renal was more than 100 µM each time.

For `CSc1nc2c(=O)n(-c3ccccc3)c(=S)n(-c3ccccc3)c2s1`, the TGI with HT29 colon, with LOX IMVI melanoma, in the assay with KM12 colon, in the assay with UACC-257 melanoma, with SR leukemia and with OVCAR-3 ovarian was more than 100 µM throughout. For the same compound, the TGI in the assay on COLO 205 colon was more than 100 µM; in the assay with NCI-H226 lung, 86.3 µM; in the assay with HCC-2998 colon, more than 100 µM; in the assay on RXF 393 renal it was 94.4 µM.

`CC(=O)NC(Cc1ccc(OP(=O)(OCc2ccc([N+](=O)[O-])o2)N(C)CCCCCl)cc1)C(=O)NC(C)c1ccc(OCC2CCCCC2)c(C(N)=O)c1` (configuration not stated): the TGI in the assay with HT29 colon worked out at 4.83 µM; in the assay with LOX IMVI melanoma, 3.77 µM; in the assay with KM12 colon, 8.71 µM; with UACC-257 melanoma, 3.78 µM; in the assay with SR leukemia, 6.42 µM; with OVCAR-3 ovarian, 5.04 µM. Further, the TGI in the assay on COLO 205 colon stood at 3.68 µM; in the assay on NCI-H226 lung, 21.2 µM; in the assay on HCC-2998 colon it was 3.42 µM; in the assay on RXF 393 renal, 5.68 µM.

`Cc1ccc(S(=O)(=O)NC(=O)NC(Cc2ccc(O)c(O)c2)C(=O)O)cc1` (configuration not stated): the TGI with HT29 colon, in the assay with LOX IMVI melanoma, in the assay on KM12 colon, with UACC-257 melanoma, with OVCAR-3 ovarian and in the assay with COLO 205 colon was more than 100 µM in each case. For the same compound, the TGI with NCI-H226 lung, in the assay with BT-549 breast and in the assay on RXF 393 renal was more than 100 µM throughout.

Regarding `CCCCCCC(C)OC(=O)/C=C(\CC(=O)OC(C)CCCCCC)C(=O)OC(C)CCCCCC` (configuration not stated), the TGI in the assay on HT29 colon, in the assay with LOX IMVI melanoma, in the assay on UACC-257 melanoma, in the assay with OVCAR-3 ovarian, with COLO 205 colon and in the assay on NCI-H226 lung was more than 100 µM in each case. The TGI in the assay on HCC-2998 colon and in the assay with RXF 393 renal was more than 100 µM each time.

As for `CCN(CC)CCCC(C)NC(=O)c1ccc2c(c1)C(=O)c1ccccc1C2=O` (configuration not stated), the TGI in the assay on HT29 colon stood at 53 µM; in the assay with LOX IMVI melanoma, 39.6 µM; in the assay with KM12 colon, 35.7 µM; in the assay with UACC-257 melanoma it was 26.1 µM; with SR leukemia, 78.1 µM; in the assay with OVCAR-3 ovarian, 32.2 µM. For the same compound, the TGI was 23.3 µM in the assay on COLO 205 colon, 49 µM in the assay with NCI-H226 lung, 33.5 µM with HCC-2998 colon and 42.8 µM in the assay on RXF 393 renal.
